{"source": "patent US11858967B2", "about": "“Compositions and methods for enhanced production of enduracidin in a genetically engineered strain of streptomyces fungicidicus” (Oregon State University, priority 2016, dated 2024)", "origin": "cited, not measured here", "key": {"[1]": {"conditions": "mice, rabbits, dogs and monkeys"}, "[2]": {"tested_on": "S. aureus (100 strains, including 40% MRSA)", "conditions": "100 strains of S. aureus"}, "MRSA": {"tested_on": "MRSA", "conditions": "humans, i.m. 100 mg every 12 hours"}, "[3]": {"tested_on": "Gram-positive organisms, including methicillin-resistant Staphylococcus aureus (MRSA) and vancomycin-resistant Enterococcus (VRE)"}, "[4]": {"conditions": "rat, in vivo"}, "[5]": {"conditions": "in vivo"}, "[6]": {"conditions": "monkey, in vivo"}}, "note": "Read-outs that look alike come from different tables or passages of the source.", "data": [{"substance": "Enduracidin", "values": [{"measurement": "acute LD50", "setting": "[1]; intraperitoneal", "value": "750 to 910", "unit": "mg/kg"}, {"measurement": "acute LD50", "setting": "[1]; intravenous", "value": "30 to 125", "unit": "mg/kg"}, {"measurement": "acute LD50", "setting": "[1]; subcutaneous, intramuscular (i.m.) or oral", "value": "5000 to 10000", "unit": "mg/kg"}, {"measurement": "activity towards Clostridium spp.", "setting": "Clostridium spp.", "value": "excellent activity"}, {"measurement": "concentration at which no strain was able to survive exposure", "setting": "[2]", "value": 1, "unit": "µg/mL"}, {"measurement": "efficacy in chronic bone infections", "setting": "MRSA", "value": "not chronic bone infections"}, {"measurement": "efficacy in urinary tract and skin infections caused by MRSA", "setting": "MRSA", "value": "highly effective"}, {"measurement": "type of antibacterial effect", "setting": "[3]", "value": "bactericidal"}, {"measurement": "Minimum inhibitory concentrations (MICs)", "setting": "[3]; as low as", "value": "≥ 0.05", "unit": "µg/mL"}, {"measurement": "findings after long-term dosing", "setting": "[4]", "value": "localized inflammation at the injection site"}, {"measurement": "oral bioavailability", "setting": "[5]", "value": "lack of oral bioavailability"}, {"measurement": "findings after long-term dosing", "setting": "[6]", "value": "localized inflammation at the injection site"}]}]}
